Source: patent US20240132450A1, “MODULATORS OF G PROTEIN-COUPLED RECEPTOR 88” (ACADIA Pharmaceuticals Inc., priority 2020, published 2024)
Where two headings read alike, the source gives them in different places.

Key:
[1] = biological target: T1, dopamine uptake transporter (rat DAT) (Rattus norvegicus, UniProt P23977); assay: Dopamine transporter uptake assay; format: biochemical; settings: rat striatum synaptosomes, [3H]dopamine
T1 construct: is determined in rat striatum synaptosomes following [^3H]dopamine scintillation counting; from tissue; host or cells: rat striatum synaptosomes
T1 sequence (P23977 whole entry): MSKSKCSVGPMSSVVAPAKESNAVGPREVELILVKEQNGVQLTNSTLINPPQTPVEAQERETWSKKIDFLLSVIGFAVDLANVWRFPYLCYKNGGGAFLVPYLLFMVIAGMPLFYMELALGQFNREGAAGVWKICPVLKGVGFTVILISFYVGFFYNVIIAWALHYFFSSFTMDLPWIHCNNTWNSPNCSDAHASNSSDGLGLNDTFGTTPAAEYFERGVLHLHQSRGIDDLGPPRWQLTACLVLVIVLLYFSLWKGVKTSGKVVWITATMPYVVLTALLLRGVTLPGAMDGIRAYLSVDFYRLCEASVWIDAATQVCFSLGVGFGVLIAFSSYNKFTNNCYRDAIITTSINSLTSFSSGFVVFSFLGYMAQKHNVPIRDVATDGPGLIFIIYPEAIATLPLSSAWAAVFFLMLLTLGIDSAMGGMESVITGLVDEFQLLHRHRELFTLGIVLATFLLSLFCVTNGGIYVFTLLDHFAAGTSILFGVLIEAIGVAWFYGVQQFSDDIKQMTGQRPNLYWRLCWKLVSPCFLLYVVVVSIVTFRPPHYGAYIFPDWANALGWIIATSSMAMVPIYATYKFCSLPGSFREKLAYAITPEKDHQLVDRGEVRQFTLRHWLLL

[2] = Hepatocyte stability (mouse); format: in vitro ADME; settings: test compound 3 μM, 60 min; for hepatocyte CLint at 3 μM: mouse, cryopreserved pooled hepatocytes in suspension, read-out: Mouse heps Clint
Description: (iii) Hepatocyte Stability (Human, Mouse, Rat or Dog)
Test compound (3 μM) is incubated with cryopreserved hepatocytes in suspension. Samples are removed at 6 time points over the course of a 60 min experiment and test compound is analysed by LC-MS/MS. An intrinsic clearance value (CLint) with standard error and half-life (t %) are calculated. Cryopreserved pooled hepatocytes are stored in liquid nitrogen prior to use. […] The final incubation volume is 500 μL. A control incubation is included for each compound tested where lysed cells are added instead of viable cells. Two control compounds are included with each species.
The reactions are stopped by transferring 50 μL of incubate to 100 μL methanol containing internal standard at the appropriate time points. The control (lysed cells) is incubated for 60 min only. The termination plates are centrifuged at 2500 rpm at 4° C. for 30 min to precipitate the protein. Following protein precipitation, the sample supernatants are combined in cassettes of up to 4 compounds and analysed using generic LC-MS/MS conditions. From a plot of In peak area ratio (compound peak area/internal standard peak area) against time, the gradient of the line is determined. Subsequently, half-life (t %) and intrinsic clearance (CLint) are calculated using the equations below: […]

hGPR88 receptor = hGPR88 receptor (Homo sapiens, UniProt Q9GZN0); assay: hGPR88-HEK cAMP accumulation assay; settings: HEK-293 cells expressing human recombinant GPR88, forskolin 200 nM, High/Medium/Low bands
Chain of hGPR88 receptor (Q9GZN0 whole entry): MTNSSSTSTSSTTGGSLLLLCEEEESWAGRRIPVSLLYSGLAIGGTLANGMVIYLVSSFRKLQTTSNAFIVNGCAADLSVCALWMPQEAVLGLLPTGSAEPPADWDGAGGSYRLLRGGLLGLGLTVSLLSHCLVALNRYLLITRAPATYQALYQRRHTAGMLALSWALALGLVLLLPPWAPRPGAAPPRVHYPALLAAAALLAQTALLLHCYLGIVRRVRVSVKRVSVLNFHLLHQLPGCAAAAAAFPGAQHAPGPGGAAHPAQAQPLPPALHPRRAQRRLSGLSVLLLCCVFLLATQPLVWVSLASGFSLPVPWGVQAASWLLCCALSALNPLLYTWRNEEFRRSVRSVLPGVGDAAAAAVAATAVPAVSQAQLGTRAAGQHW
Description: Biological Assay 1: hGPR88-HEK cAMP Accumulation Assay
Cryopreserved vials of HEK-293 cells expressing human recombinant GPR88 receptor are re-suspended in KRH assay buffer and 5 μl of cell solution is suspended in test wells at a seeding density of 2500±500 cells per well using the multidrop to provide a final reaction volume of 10 μl containing 0.5% DMSO. Assay plate is incubated for 30 min at room temperature and the reaction is terminated by addition of 5 μl of each of the cAMP detection reagents of the cAMP Gi kit (Cisbio Bioassays, 62AM9PEJ), diluted in cell lysis buffer, to each well using the multidrop in the following order: first the cAMP-d2 conjugate, then the anti-cAMP cryptate conjugate. […] Raw counts were converted to cAMP concentrations via a standard curve before EC50 and Emax determination. Data is expressed as % decrease in forskolin stimulated cAMP compared to cells treated with vehicle alone in the same buffer and on the same plate.

[3] = read-out: GRP88 agonist activity (EC50)

| Inhibition of dopamine uptake transporter (% inhibition at 10 μM compound) ([1]; 10 µM) | hepatocyte CLint at 3 μM [2] | EC50 (hGPR88 receptor; GRP88 agonist activity (EC50)) | Inhibition of dopamine uptake transporter (% inhibition at 10 μM compound) [1] | EC50 (hGPR88 receptor; [3]) | Mouse heps Clint ([2]; mouse cryopreserved hepatocytes) | SMILES |
| --- | --- | --- | --- | --- | --- | --- |
| 11 % inhibition | 65 µL/min/1e6 cells | < 1000 nM |  |  |  | COCc1ccc(-c2ccc(NC(=O)C3CC3c3ccccn3)cc2)cc1 (racemic) [Example 1, (rac-trans)-N-(4′-(methoxymethyl)-[1,1′-biphenyl]-4-yl)-2-(pyridin-2-yl)cyclo propane-1-carboxamide] |
|  |  |  | 28 % inhibition |  |  | COCc1ccc(-c2ccc(NC(=O)C3CC3c3ccccn3)nc2)cc1 (racemic) [Example 45, (rac-trans)-N-(5-(4-(methoxymethyl)phenyl)pyridin-2-yl)-2-(pyridin-2-yl)cyclopropane-1-carboxamide] |
| 5 % inhibition |  |  |  | 1000 to 5000 nM |  | CCOc1ccc(-c2ccc(NC(=O)C3CC3c3ccccn3)cc2)cn1 (racemic) [Example 75, (rac-trans)-N-(4-(6-ethoxypyridin-3-yl)phenyl)-2-(pyridin-2-yl)cyclopropane-1-carboxamide] |
| 7 % inhibition |  |  |  | 1000 to 5000 nM | 30 μL/min/10^6 cells | CCOc1ccc(-c2ccc(NC(=O)C3CC3c3ccccn3)cc2)cn1 (racemic) [Example 76, (rac-trans)-N-(4-(6-ethoxypyridin-3-yl)phenyl)-2-(pyridin-2-yl)cyclopropane-1-carboxamide] |
|  | 14 µL/min/1e6 cells | < 1000 nM | 12 % inhibition |  |  | CS(=O)(=O)c1ccc(-c2ccc(NC(=O)C3CC3c3ccccn3)cc2)cc1 (racemic) [Example 85, (rac-trans)-N-(4′-(methylsulfonyl)-[1,1′-biphenyl]-4-yl)-2-(pyridin-2-yl)cyclopropane-1-carboxamide] |
|  | 31 µL/min/1e6 cells | < 1000 nM | 1 % inhibition |  |  | O=C(Nc1ccc(-c2ccc(OC3CC3)cc2)cc1)C1CC1c1ccccn1 (racemic) [Example 87, (rac-trans)-N-(4′-cyclopropoxy-[1,1′-biphenyl]-4-yl)-2-(pyridin-2-yl)cyclopropane-1-carboxamide] |
|  | 22 µL/min/1e6 cells | 1000 to 5000 nM | 14 % inhibition |  |  | COCc1ccc(C23CC(NC(=O)C4CC4c4ccccn4)(C2)C3)cc1 (racemic) [Example 111, (rac-trans)-N-(3-(4-(methoxymethyl)phenyl)bicyclo[1.1.1]pentan-1-yl)-2-(pyridin-2-yl)cyclopropane-1-carboxamide] |
|  |  | > 5000 nM | 2 % inhibition |  |  | COCc1ccc([C@]23C[C@](NC(=O)C4CC4c4ccccn4)(C2)C3)nc1 (mixture of isomers) [Example 136, N-(3-(5-(methoxymethyl)pyridin-2-yl)bicyclo[1.1.1]pentan-1-yl)-2-(pyridin-2-yl)cyclopropane-1-carboxamide] |
|  |  | 1000 to 5000 nM | 10 % inhibition |  |  | CCCc1ccc([C@]23C[C@](NC(=O)C4CC4c4ccccn4)(C2)C3)nc1 (mixture of isomers) [Example 137, N-(3-(5-propylpyridin-2-yl)bicyclo[1.1.1]pentan-1-yl)-2-(pyridin-2-yl)cyclopropane-1-carboxamide] |
|  |  |  | 17 % inhibition |  |  | O=C(Nc1ccc(-c2ccc(CN3CCOCC3)cc2)cc1)C1CC1c1ccccn1 (single isomer, unassigned) [Example 78, (1R*,2R*)-N-(4′-(morpholinomethyl)-[1,1′-biphenyl]-4-yl)-2-(pyridin-2-yl)cyclopropane-1-carboxamide] |
|  | 54 µL/min/1e6 cells | < 1000 nM | 3 % inhibition |  |  | COCc1ccc(-c2ccc(NC(=O)C(C)(C)Oc3ccc(F)cc3)cc2)cc1 [Example 2, 2-(4-fluorophenoxy)-N-(4′-(methoxymethyl)-[1,1′-biphenyl]-4-yl)-2-methylpropanamide] |
|  | 70 µL/min/1e6 cells | < 1000 nM | 7 % inhibition |  |  | CCOc1ccc(-c2ccc(NC(=O)C(C)(C)Oc3ccc(F)cc3)cc2)cn1 [Example 26, N-(4-(6-ethoxypyridin-3-yl)phenyl)-2-(4-fluorophenoxy)-2-methylpropanamide] |
|  | 76 µL/min/1e6 cells | < 1000 nM | 52 % inhibition |  |  | COCc1ccc(-c2ccc3c(c2)CCCN3C(=O)C(C)(C)Oc2ccc(F)cc2)cc1 [Example 31, 2-(4-fluorophenoxy)-1-(6-(4-(methoxymethyl)phenyl)-3,4-dihydroquinolin-1(2H)-yl)-2-methylpropan-1-one] |
|  |  | < 1000 nM | 0 % inhibition |  |  | CN(C)c1ncc(-c2ccc(NC(=O)C(C)(C)Oc3ccc(F)cc3)cc2)cn1 [Example 49, N-(4-(2-(dimethylamino)pyrimidin-5-yl)phenyl)-2-(4-fluorophenoxy)-2-methylpropanamide] |
|  |  | < 1000 nM | 21 % inhibition |  |  | CN(C)c1ccc(-c2ccc(NC(=O)C(C)(C)Oc3ccc(F)cc3)cc2)cn1 [Example 79, N-(4-(6-(dimethylamino)pyridin-3-yl)phenyl)-2-(4-fluorophenoxy)-2-methylpropanamide] |
|  |  | 1000 to 5000 nM | 8 % inhibition |  |  | COCc1ccc([C@]23C[C@](NC(=O)C(C)(C)Oc4ccc(F)cc4)(C2)C3)cc1 [Example 135, 2-(4-fluorophenoxy)-N-(3-(4-(methoxymethyl)phenyl)bicyclo[1.1.1]pentan-1-yl)-2-methylpropanamide] |

| SMILES | Inhibition of dopamine uptake transporter (% inhibition at 10 μM compound) ([1]; 10 µM) | hepatocyte CLint at 3 μM [2] | EC50 (hGPR88 receptor; GRP88 agonist activity (EC50)) | Inhibition of dopamine uptake transporter (% inhibition at 10 μM compound) [1] | EC50 (hGPR88 receptor; [3]) | Mouse heps Clint ([2]; mouse cryopreserved hepatocytes) |
| --- | --- | --- | --- | --- | --- | --- |
| CCCc1ccc(-c2ccc(N(C[C@@H](N)[C@@H](C)CC)C(=O)[C@@H]3C[C@H]3c3ccccn3)cc2)cc1 [Literature comparative 2, 2-PCCA, reference compound] |  |  |  | 90 % inhibition |  |  |
